According to ChEMBL document CHEMBL1201862, “PubChem BioAssay data set” (2004):
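Results reflect a 48-hour exposure of cells in 96-well plates to compound at five concentrations. The concentration for 50% growth inhibition is given as GI50.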 The source made the active and inactive calls. No stated cut-off is given here; in the data, active = GI50 up to about 1.1 µM and inactive = higher.

What was measured:
Test in all cases: NCI anticancer screen, dose series, 48 h
OVCAR-8 = test system: OVCAR-8
EKVX = test system: EKVX
MOLT-4 = test system: MOLT-4
SK-MEL-28 = test system: SK-MEL-28
UACC-62 = test system: UACC-62
HL-60 = test system: HL-60
HCC 2998 = test system: HCC 2998
OVCAR-5 = test system: OVCAR-5
NCI-H23 = test system: NCI-H23
SK-OV-3 = test system: SK-OV-3
786-0 = test system: 786-0
U-251 = test system: U-251
SW-620 = test system: SW-620
UO-31 = test system: UO-31
K562 = test system: K562

Measured: GI50

CC(=O)c1sc(Nc2nnc(-c3ccc(-c4nnc(Nc5nc(C)c(C(C)=O)s5)o4)cc3)o2)nc1C
inactive: OVCAR-8 > 100 µM | EKVX > 100 µM | MOLT-4 > 100 µM | SK-MEL-28 > 100 µM | UACC-62 > 100 µM | HL-60 > 100 µM | HCC 2998 > 100 µM | OVCAR-5 > 10 µM | NCI-H23 > 100 µM | SK-OV-3 > 10 µM | 786-0 > 100 µM | U-251 > 100 µM | SW-620 > 100 µM | UO-31 > 10 µM | K562 > 100 µM

O=C(CC1(O)C(=O)Nc2ccc(Br)cc21)c1cccc([N+](=O)[O-])c1 (stereo not given)
inactive: OVCAR-8 35.5 µM | EKVX 40.7 µM | MOLT-4 24.9 µM | SK-MEL-28 35.8 µM | HL-60 27.7 µM | HCC 2998 65 µM | OVCAR-5 > 100 µM | NCI-H23 43.9 µM | SK-OV-3 > 100 µM | 786-0 42.7 µM | U-251 > 100 µM | SW-620 37.8 µM | UO-31 64.9 µM | K562 20.6 µM

O=c1ccc(=O)c2c(=O)c3ccccc3c(=O)c1=2
inactive: OVCAR-8 27.5 µM | EKVX 28.7 µM | MOLT-4 23 µM | SK-MEL-28 > 100 µM | UACC-62 36.7 µM | HL-60 17.2 µM | HCC 2998 54.7 µM | OVCAR-5 > 100 µM | NCI-H23 70.3 µM | SK-OV-3 > 100 µM | 786-0 39.7 µM | U-251 43.6 µM | SW-620 32.7 µM | UO-31 57.8 µM | K562 > 100 µM

O=C1OC(c2ccccc2)=N/C1=C/NC(Cc1c[nH]c2ccccc12)C(=O)O (stereo not given)
inactive: OVCAR-8 > 100 µM | EKVX > 100 µM | MOLT-4 > 100 µM | SK-MEL-28 > 100 µM | UACC-62 > 100 µM | HL-60 > 100 µM | HCC 2998 > 100 µM | OVCAR-5 > 100 µM | NCI-H23 > 100 µM | SK-OV-3 > 100 µM | 786-0 > 100 µM | U-251 > 100 µM | SW-620 > 100 µM | UO-31 > 100 µM | K562 > 100 µM

NCCCCNCCCNC(=O)c1nc(-c2csc(CCN)n2)sc1Cl
inactive: OVCAR-8 > 100 µM | EKVX > 100 µM | MOLT-4 > 100 µM | SK-MEL-28 > 100 µM | UACC-62 > 100 µM | HL-60 > 100 µM | HCC 2998 > 100 µM | OVCAR-5 > 100 µM | NCI-H23 > 100 µM | SK-OV-3 > 100 µM | U-251 > 100 µM | SW-620 > 100 µM | UO-31 > 100 µM | K562 49.5 µM

CC1=C(O)C(=O)c2cn(C)cc2C1=O
inactive: OVCAR-8 > 100 µM | EKVX > 100 µM | MOLT-4 > 100 µM | SK-MEL-28 > 100 µM | UACC-62 > 100 µM | HL-60 > 100 µM | HCC 2998 > 100 µM | OVCAR-5 > 100 µM | NCI-H23 > 100 µM | SK-OV-3 > 100 µM | 786-0 > 100 µM | U-251 > 100 µM | SW-620 > 100 µM | UO-31 > 100 µM | K562 > 100 µM

Cc1cn([C@@H]2C[C@H](CO)[C@@H](O)C2)c(=O)[nH]c1=O
inactive: OVCAR-8 > 100 µM | EKVX > 100 µM | MOLT-4 > 100 µM | SK-MEL-28 > 100 µM | UACC-62 > 100 µM | HL-60 > 100 µM | HCC 2998 > 100 µM | OVCAR-5 > 100 µM | NCI-H23 > 100 µM | SK-OV-3 > 100 µM | U-251 > 100 µM | SW-620 > 100 µM | UO-31 > 100 µM | K562 > 100 µM

O=C1C(Cl)=C(Cl)C(=O)N1C1C2CC3CC(C2)CC1C3 (stereo not given)
inactive: OVCAR-8 > 76.4 µM | EKVX > 100 µM | MOLT-4 21.4 µM | SK-MEL-28 > 100 µM | UACC-62 > 100 µM | HL-60 24.5 µM | HCC 2998 > 100 µM | OVCAR-5 > 100 µM | NCI-H23 > 100 µM | SK-OV-3 > 100 µM | 786-0 > 100 µM | U-251 > 100 µM | SW-620 47 µM | UO-31 > 100 µM | K562 28 µM

O=c1cc(-c2ccc(Cl)cc2)oc2cc(OCCCOc3ccc4c(=O)cc(-c5ccc(Cl)cc5)oc4c3)ccc12
inactive: OVCAR-8 > 100 µM | EKVX > 100 µM | MOLT-4 > 100 µM | SK-MEL-28 > 100 µM | UACC-62 > 100 µM | HL-60 > 100 µM | HCC 2998 > 100 µM | OVCAR-5 > 100 µM | NCI-H23 > 100 µM | SK-OV-3 > 100 µM | 786-0 > 100 µM | U-251 > 100 µM | SW-620 > 100 µM | K562 > 100 µM

Cc1ccc(C2C(Cl)C(=O)N2NC(=O)c2ccc(N)cc2)cc1 (stereo not given)
inactive: OVCAR-8 14.4 µM | EKVX 28.8 µM | MOLT-4 11.4 µM | SK-MEL-28 12.4 µM | UACC-62 15.8 µM | HL-60 12.1 µM | HCC 2998 > 100 µM | OVCAR-5 24.3 µM | NCI-H23 16 µM | SK-OV-3 20.1 µM | 786-0 15.5 µM | U-251 14.6 µM | SW-620 21 µM | UO-31 30 µM | K562 22.5 µM

COC(=O)/C(C=O)=C/Sc1ccccc1
inactive: OVCAR-8 15.6 µM | EKVX 29 µM | MOLT-4 > 100 µM | SK-MEL-28 19.4 µM | UACC-62 22.2 µM | HL-60 45.5 µM | HCC 2998 37.8 µM | OVCAR-5 37.6 µM | NCI-H23 36.4 µM | SK-OV-3 42.9 µM | 786-0 15.2 µM | U-251 17.1 µM | SW-620 37.9 µM | UO-31 10.5 µM | K562 50.7 µM

CC1=NOC(=O)/C1=C/c1ccc([N+](=O)[O-])cc1
inactive: OVCAR-8 > 100 µM | EKVX > 100 µM | MOLT-4 > 100 µM | SK-MEL-28 > 100 µM | UACC-62 > 100 µM | HL-60 > 100 µM | HCC 2998 > 100 µM | OVCAR-5 > 100 µM | NCI-H23 > 100 µM | SK-OV-3 > 100 µM | 786-0 > 100 µM | U-251 > 100 µM | SW-620 59 µM | UO-31 > 100 µM | K562 > 100 µM

CC(C)OP(=O)(OC(C)C)C1=NN(c2ccc([N+](=O)[O-])cc2)C(P(=O)(OC(C)C)OC(C)C)=NN1c1ccc([N+](=O)[O-])cc1
inactive: OVCAR-8 38.1 µM | EKVX 8.91 µM | MOLT-4 5.19 µM | SK-MEL-28 > 100 µM | UACC-62 > 100 µM | HL-60 2.55 µM | HCC 2998 47.2 µM | OVCAR-5 > 100 µM | NCI-H23 > 100 µM | SK-OV-3 > 100 µM | U-251 42.7 µM | SW-620 > 100 µM | UO-31 95.7 µM | K562 6.95 µM
